PubChem BioAssay AID1845209 (Molecular Pharmacology Branch, DTP, NCI, 2023)

Test system: NCI-H211 tumor spheroids, viability percent test/control
Assay: Anticancer human tumor NCI-H211 cell line growth inhibition;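 note: spheroids exposed to agents for seven days before readout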
Conditions: spheroids with HUVEC and MSC; for IC50: curve of first compound; for viability, T/C: stronger effect = lower value
How it was run: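 Complex tumor spheroids combined malignant cells with endothelial cells and mesenchymal stem cells. DNA-damaging drugs and DNA repair inhibitors were tested alone and in combination, at half-log dilutions down from clinical Cmax (top 10 microM if Cmax unknown), 0.25% DMSO final.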

Q: Which results are given for `Cc1sc2c(c1C)C(c1ccc(Cl)cc1)=NC(CC(=O)Nc1ccc(O)cc1)c1nnc(C)n1-2` (stereo not given) + Cn1nnc2c(C(N)=O)ncn2c1=O?
A: IC50 (second compound 1 µM): < 9.49 nM; IC50 (second compound 3.16 µM): < 9.49 nM; IC50 (second compound 10 µM): < 9.49 nM; IC50 (second compound 31.6 µM): < 9.49 nM; IC50 (second compound 100 µM): < 9.49 nM; viability, T/C (second compound 1 µM, first compound 0.00949 µM): 25.5%; viability, T/C (second compound 1 µM, first compound 0.03 µM): 2.24%; viability, T/C (second compound 1 µM, first compound 0.0949 µM): 0.88%; viability, T/C (second compound 1 µM, first compound 0.3 µM): 0.67%; viability, T/C (second compound 1 µM, first compound 0.949 µM): 0.78%; viability, T/C (second compound 1 µM, first compound 3 µM): 0.72%; viability, T/C (second compound 3.16 µM, first compound 0.00949 µM): 36.7%; viability, T/C (second compound 3.16 µM, first compound 0.03 µM): 3.37%; viability, T/C (second compound 3.16 µM, first compound 0.0949 µM): 0.97%; viability, T/C (second compound 3.16 µM, first compound 0.3 µM): 0.76%; viability, T/C (second compound 3.16 µM, first compound 0.949 µM): 0.66%; viability, T/C (second compound 3.16 µM, first compound 3 µM): 0.82%; viability, T/C (second compound 10 µM, first compound 0.00949 µM): 31.8%; viability, T/C (second compound 10 µM, first compound 0.03 µM): 1.97%; viability, T/C (second compound 10 µM, first compound 0.0949 µM): 1.15%; viability, T/C (second compound 10 µM, first compound 0.3 µM): 0.79%; viability, T/C (second compound 10 µM, first compound 0.949 µM): 0.76%; viability, T/C (second compound 10 µM, first compound 3 µM): 0.74%; viability, T/C (second compound 31.6 µM, first compound 0.00949 µM): 22%; viability, T/C (second compound 31.6 µM, first compound 0.03 µM): 1.97%; viability, T/C (second compound 31.6 µM, first compound 0.0949 µM): 1.02%; viability, T/C (second compound 31.6 µM, first compound 0.3 µM): 0.79%; viability, T/C (second compound 31.6 µM, first compound 0.949 µM): 0.71%; viability, T/C (second compound 31.6 µM, first compound 3 µM): 0.82%; viability, T/C (second compound 100 µM, first compound 0.00949 µM): 6.77%; viability, T/C (second compound 100 µM, first compound 0.03 µM): 1.61%; viability, T/C (second compound 100 µM, first compound 0.0949 µM): 1.08%; viability, T/C (second compound 100 µM, first compound 0.3 µM): 1.09%; viability, T/C (second compound 100 µM, first compound 0.949 µM): 0.86%; viability, T/C (second compound 100 µM, first compound 3 µM): 1.03%

Q: What does the source list for `[2H]c1nc(C)nc([2H])c1-c1cc(NC[C@@H](C)c2cccc3c(C(=O)NC)ccnc23)ncn1` + CC[C@@]1(O)C(=O)OCc2c1cc1n(c2=O)Cc2cc3c(CN(C)C)c(O)ccc3nc2-1?
A: IC50 (second compound 0.003 µM): 8430 nM; IC50 (second compound 0.00949 µM): < 31.6 nM; IC50 (second compound 0.03 µM): < 31.6 nM; IC50 (second compound 0.0949 µM): < 31.6 nM; IC50 (second compound 0.3 µM): < 31.6 nM; viability, T/C (second compound 0.003 µM, first compound 0.0316 µM): 65.3%; viability, T/C (second compound 0.003 µM, first compound 0.1 µM): 63.1%; viability, T/C (second compound 0.003 µM, first compound 0.316 µM): 49.7%; viability, T/C (second compound 0.003 µM, first compound 1 µM): 65.6%; viability, T/C (second compound 0.003 µM, first compound 3.16 µM): 51%; viability, T/C (second compound 0.003 µM, first compound 10 µM): 48.1%; viability, T/C (second compound 0.00949 µM, first compound 0.0316 µM): 4.11%; viability, T/C (second compound 0.00949 µM, first compound 0.1 µM): 1.98%; viability, T/C (second compound 0.00949 µM, first compound 0.316 µM): 1.95%; viability, T/C (second compound 0.00949 µM, first compound 1 µM): 1.63%; viability, T/C (second compound 0.00949 µM, first compound 3.16 µM): 2.52%; viability, T/C (second compound 0.00949 µM, first compound 10 µM): 1.58%; viability, T/C (second compound 0.03 µM, first compound 0.0316 µM): 0.8%; viability, T/C (second compound 0.03 µM, first compound 0.1 µM): 1.15%; viability, T/C (second compound 0.03 µM, first compound 0.316 µM): 1.33%; viability, T/C (second compound 0.03 µM, first compound 1 µM): 0.93%; viability, T/C (second compound 0.03 µM, first compound 3.16 µM): 1.82%; viability, T/C (second compound 0.03 µM, first compound 10 µM): 1.19%; viability, T/C (second compound 0.0949 µM, first compound 0.0316 µM): 1.46%; viability, T/C (second compound 0.0949 µM, first compound 0.1 µM): 0.76%; viability, T/C (second compound 0.0949 µM, first compound 0.316 µM): 1.4%; viability, T/C (second compound 0.0949 µM, first compound 1 µM): 0.83%; viability, T/C (second compound 0.0949 µM, first compound 3.16 µM): 1.25%; viability, T/C (second compound 0.0949 µM, first compound 10 µM): 1.69%; viability, T/C (second compound 0.3 µM, first compound 0.0316 µM): 1.19%; viability, T/C (second compound 0.3 µM, first compound 0.1 µM): 1.37%; viability, T/C (second compound 0.3 µM, first compound 0.316 µM): 0.88%; viability, T/C (second compound 0.3 µM, first compound 1 µM): 1.14%; viability, T/C (second compound 0.3 µM, first compound 3.16 µM): 0.92%; viability, T/C (second compound 0.3 µM, first compound 10 µM): 0.98%
